Results as given in patent publication US5741671A, “Isolation cloning and expression of transmembrane water channel aquaporin 1(AQP1)” (The Johns Hopkins University, priority 1995, dated 1998).

Target: T1, AQP1 (Homo sapiens, UniProt P29972)
T1 sequence (P29972 1-269): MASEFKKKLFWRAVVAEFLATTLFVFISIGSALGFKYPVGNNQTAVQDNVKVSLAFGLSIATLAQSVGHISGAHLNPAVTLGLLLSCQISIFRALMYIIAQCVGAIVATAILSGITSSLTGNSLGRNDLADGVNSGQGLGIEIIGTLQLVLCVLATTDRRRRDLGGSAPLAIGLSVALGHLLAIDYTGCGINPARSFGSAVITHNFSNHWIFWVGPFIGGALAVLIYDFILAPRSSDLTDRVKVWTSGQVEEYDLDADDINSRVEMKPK
Assay: Xenopus oocyte osmotic swelling assay, AQP1 RNA-injected oocytes (Example 4)
Assay type: cell-based
Design: expressed in transfected cells; host or cells: Xenopus laevis oocytes injected with in vitro transcribed AQP1 RNA
Conditions: for Pf (osmotic water permeability): AQP1 RNA-injected (10 ng) oocytes, 22° C.
Protocol: Expression of AQP1 in Xenopus oocytes. Oocytes were removed from female Xenopus laevis frogs and prepared as described by Dascal (CRC Crit. Rev. Biochem., 1987, 22:317-373). Oocytes were injected with 0.05 microliters of water (control) or the same volume of water containing 1-10 nanograms of AQP1 RNA. The oocytes were incubated for up to 96 hours at 18° C. in modified Barth's buffer (88 mM NaCl, 1 mM KCl, 0.8 mM MgSO4, 0.3 mM Ca(NO3)2, 0.4 mM CaCl2, 2.4 mm NaHCO3, 10 mM HEPES, pH=7.4, total osmolality=200 mOsm/kg) also containing antibiotics. The whole oocytes were then removed and total cellular protein was dissolved in 40 microliters of buffer containing 1% (w/v) SDS and analyzed by immunoblot (Towbin et al., 1979, Proc. Natl. Acad. Sci. USA 76:4350-4354).
A swelling assay was adapted from that of published work (Fischbarg et al., 1990, Proc. Natl. Acad. Sci. USA 87:3244-3247; Zhang et al., 1990, J. Biol. Chem. 265: 15375-15378). Control-injected oocytes and AQP1 RNA-injected oocytes were incubated at 22° C. in modified Barth's solution diluted with distilled H2 O to 30% of the original tonicity. The oocytes were then observed by videomicroscopy. Swelling was monitored with a Nikon phase-contrast microscope equipped for videorecording. The longest (D1) and shortest (D2) diameters of the oocytes were measured at 15- to 30-second intervals. Oocyte volumes (V) at each time point were calculated relative to volume at the initial observation (Vo):
The change in relative volume with time, d(V/Vo)/dt, up to 8 minutes (or time of oocyte rupture) was fitted by computer to a quadratic polynomial, and initial rates of swelling were calculated. Osmotic water permeability (Pf, in cm/s) was calculated from osmotic swelling data, initial oocyte surface area (S=0.045 cm^2), and the molar volume of water (Vw =18 cm^3 /mol) (Zhang et al., 1990, J. Biol. Chem. 15375):
Pf =Vo ×d(V/Vo)dt]/[S×Vw x(osmm
After 72 hours, control- or AQP1 RNA-injected (10 ng) oocytes were treated as indicated. Some oocytes were left in standard Barth's buffer prior to measurement of osmotic swelling at 22° C. Other oocytes were incubated 5 minutes in Barth's buffer containing 0.3 mM or 3 mM HgCl2 as described, then removed and incubated for 15 min in 5 mM β-mercaptoethanol prior to osmotic swelling in the presence of β-mercaptoethanol.
After 72 hours, control-injected oocytes and oocytes injected with 0.1 to 10 ng of AQP1 RNA were studied for osmotic swelling at 22° C. The amount of AQP1 protein was estimated by dilutional immunoblotting (Denker et al., 1988, J. Biol. Chem. 263:15634; Laemmli, 1970, Nature 227:680; Towbin et al., 1979, Proc. Natl. Acad. Sci., 76:4350; Davis and Bennett, 1982, 257:5816).

SMILES | inhibition of swelling of AQP1 RNA-injected oocytes (0.3 mM HgCl2) | Pf (osmotic water permeability) (0.3 mM HgCl2 5 minutes) [cm/s x 10^-4] | Pf (osmotic water permeability) (3.0 mM HgCl2 5 minutes) [cm/s x 10^-4] | restoration of swelling after HgCl2 inhibition (5 mM β-mercaptoethanol after 0.3 mM HgCl2)
[Cl][Hg][Cl] [HgCl2] | inhibited | 80.7 | 34.5 | 
OCCS [β-mercaptoethanol] |  |  |  | restored
